Test results reported in patent US20200223889A1, “Bicyclic Compounds Capable of Binding to Melanocortin 4 Receptor” (Novo Nordisk A/S, priority 2017, published 2020).
Where two headings read alike, the source gives them in different places. Positions of bridges follow the written chain, without caps; N, C: chain ends. Non-standard residues stand in square brackets, D forms with d. Residues, ends and D or L forms follow the SMILES beside them. Phe(3,4-Cl2) = N[C@@H](Cc1ccc(Cl)c(Cl)c1)C(=O)O; Hyp = O=C(O)[C@@H]1C[C@@H](O)CN1; Dab = NCC[C@H](N)C(=O)O; Aib = CC(C)(N)C(=O)O; GABA = NCCCC(=O)O; Sar = CNCC(=O)O

Legend:
human MC1R = molecular target: T1, human MC1R (Homo sapiens, UniProt Q01726); assay: Functional cAMP assay (CisBio HTRF) in BHK cells expressing human MC1R; format: cell-based
T1 construct: expressed in transfected cells
Description: In order to assess the potency of the compounds on human MC1R and human MC4R cAMP signalling was measured.
cAMP induction was measured by c-AMPdynamic2 assay, HTRF 62AM4PEC system from CisBio for the human MC1R and human MC4R according to the protocol provided by the vendor. BHK cells expressing the human MC1 or MC4 receptor were generated by stable transfection with expression vectors encoding the cDNA of either MC1R or MC4R.
In details; 25 μl compound—or standard solution were added in the respective wells. Compound was reconstituted in buffer (DMEM w/o phenol red, 10 mM
Hepes, lx Glutamine, 0.1% OV-albumin1, 1 mM IBMX) and serially diluted starting at 2 μM, 10-fold seven times. Dilutions were carried out in the same aforementioned buffer to the desired working concentration ranges (2× higher than the final concentration). 25 μl cell solution was then added and allowed to incubate for 30 min while lightly shaking, at 25° C. […] The provided components for the assay were reconstituted according to the CisBio assay protocol “3.1 supplied reagents and preparation procedure” in MilliQ purification system H2O and diluted 1:20 in lysis buffer. 25 μl cAMP-d2 and 25 μl Cryptate conjugate were added to all wells.
Plates were centrifuged at 1500 rpm for 30 sec and incubated for 1 h, lightly shaking, at 25° C. in a hotel stacker. The plates were read on Mithras LB 940 provided by Berthold Technologies The data were analysed by non-linear regression analysis of binding curves, using the Windows™ program GraphPad™ Prism (GraphPad Software, USA).
The latter is used when no full curve can be obtained in the concentration ranges indicated above.

human MC4R [1] = molecular target: T2, human MC4R (Homo sapiens, UniProt P32245); assay: Functional cAMP assay (CisBio HTRF) in BHK cells expressing human MC4R; format: cell-based; conditions: for MC1R/MC4R cAMP EC50 ratio: MC1R cAMP EC50 divided by MC4R cAMP EC50
T2 construct: expressed in transfected cells
Summary of the method: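 Compound working solutions, 10-fold dilutions from 2 μM at twice final strength, in buffer containing 1 mM IBMX, were incubated 30 min at 25 °C with BHK cells stably carrying human MC4R or MC1R. Accumulated cAMP was then detected by competitive HTRF after 1 h at 25 °C and fitted by non-linear regression.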

human MC4R [2] = molecular target: T2, human MC4R; assay: 125NDP-α-MSH competitive binding to membranes of BHK cells expressing human MC4 receptor (filtration assay)
Summary of the method: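 Displacement of ^125NDP-α-MSH (apx. […] final) was measured by filtration after 2 h at 25 °C, using diluted membranes of stably transfected BHK cells in pH 7.0 HEPES buffer. Compounds spanned 1 μM to 0.001 nM; binding curves were analysed by non-linear regression.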

[3] = BHK cells expressing human MC1R, '>' = highest dose used with no response, read-out: MC1R cAMP EC50
[4] = BHK cells expressing human MC4R, '>' = highest dose used with no response, read-out: MC4R cAMP EC50
[5] = human MC4R, BHK cell membranes, 125NDP-α-MSH radioligand, read-out: MC4R binding Ki

T2 sequence (P32245 whole entry): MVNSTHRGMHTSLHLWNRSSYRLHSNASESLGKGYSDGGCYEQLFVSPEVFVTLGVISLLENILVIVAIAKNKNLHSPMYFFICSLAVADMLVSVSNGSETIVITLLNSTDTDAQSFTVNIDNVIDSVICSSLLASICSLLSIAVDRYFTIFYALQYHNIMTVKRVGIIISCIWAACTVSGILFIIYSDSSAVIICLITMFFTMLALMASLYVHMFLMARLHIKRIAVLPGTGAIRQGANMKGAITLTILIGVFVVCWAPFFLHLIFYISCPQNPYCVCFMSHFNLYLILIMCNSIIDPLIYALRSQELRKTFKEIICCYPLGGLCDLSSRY
T1 sequence (Q01726 whole entry): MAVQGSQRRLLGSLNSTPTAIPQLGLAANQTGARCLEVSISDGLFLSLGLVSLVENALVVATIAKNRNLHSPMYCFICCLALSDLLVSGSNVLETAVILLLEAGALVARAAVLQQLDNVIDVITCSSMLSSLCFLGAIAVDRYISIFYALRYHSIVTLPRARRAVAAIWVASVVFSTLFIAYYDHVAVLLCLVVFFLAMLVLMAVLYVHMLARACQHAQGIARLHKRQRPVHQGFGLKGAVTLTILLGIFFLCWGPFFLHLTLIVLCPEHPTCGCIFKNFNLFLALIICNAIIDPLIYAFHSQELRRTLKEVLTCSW

| EC50 (human MC1R; [3]) | EC50 (human MC4R [1]; [4]) | Ki (human MC4R [2]; [5]) | MC1R/MC4R cAMP EC50 ratio (human MC4R [1]) | Structure (SMILES) | EC50 (human MC1R) | EC50 (human MC4R [1]) | Ki (human MC4R [2]) |
| --- | --- | --- | --- | --- | --- | --- | --- |
| 0.28 nM | 0.01 nM | 0.03 nM | 28 | N=C(N)NCCC[C@@H]1NC(=O)[C@@H](Cc2ccccc2)NC(=O)[C@H](Cc2c[nH]cn2)NC(=O)CCCNC(=O)[C@@H]2CSSC[C@H](NC(=O)[C@H](Cc3c[nH]c4ccccc34)NC1=O)C(=O)NCCCC(=O)N[C@@H](Cc1c[nH]cn1)C(=O)N[C@H](Cc1ccccc1)C(=O)N[C@@H](CCCNC(=N)N)C(=O)N[C@@H](Cc1c[nH]c3ccccc13)C(=O)N2 [Chem. 35, c[c[Cys-GABA-His-D-Phe-Arg-Trp- Cys]-GABA-His-D-Phe-Arg-Trp]] (cyclo(C[GABA]H[dF]RWC[GABA]H[dF]RW); disulfide 1-7) |  |  |  |
| > 3.7 nM | 4.22 nM | 5.64 nM |  | CC1(C)NC(=O)[C@@H]2CSSC[C@H](NC(=O)[C@H](Cc3c[nH]c4ccccc34)NC(=O)[C@H](CCCNC(=N)N)NC(=O)[C@@H](Cc3ccccc3)NC(=O)[C@@H]3C[C@@H](O)CN3C1=O)C(=O)NC(C)(C)C(=O)N1C[C@H](O)C[C@H]1C(=O)N[C@H](Cc1ccccc1)C(=O)N[C@@H](CCCNC(=N)N)C(=O)N[C@@H](Cc1c[nH]c3ccccc13)C(=O)N2 [Chem. 38, c[c[Cys-Aib-Hyp-D-Phe-Arg-Trp- Cys]-Aib-Hyp-D-Phe-Arg-Trp]] (cyclo([Aib][Hyp][dF]RWC[Aib][Hyp][dF]RWC); disulfide 6-12) |  |  |  |
| > 5.5 nM | 5.65 nM | 7.86 nM | >1 | CC1(C)NC(=O)[C@@H]2CSSC[C@H](NC(=O)[C@H](Cc3c[nH]c4ccccc34)NC(=O)[C@H](CCN)NC(=O)[C@@H](Cc3ccccc3)NC(=O)[C@H](Cc3c[nH]cn3)NC1=O)C(=O)NC(C)(C)C(=O)N[C@@H](Cc1c[nH]cn1)C(=O)N[C@H](Cc1ccccc1)C(=O)N[C@@H](CCN)C(=O)N[C@@H](Cc1c[nH]c3ccccc13)C(=O)N2 [Chem. 46, c[c[Cys-Aib-His-D-Phe-Dab-Trp- Cys]-Aib-His-D-Phe-Dab-Trp]] (cyclo([Aib]H[dF][Dab]WC[Aib]H[dF][Dab]WC); disulfide 6-12) |  |  |  |
| > 1 nM | 0.17 nM | 0.13 nM | >6 | C[C@@H]1NC(=O)[C@@H]2CSSC[C@H](NC(=O)[C@H](Cc3c[nH]c4ccccc34)NC(=O)[C@H](CCCCN)NC(=O)[C@H](CCCCN)NC(=O)[C@H](CCCCN)NC1=O)C(=O)N1CCC[C@H]1C(=O)N[C@@H](Cc1c[nH]cn1)C(=O)N[C@H](Cc1ccccc1)C(=O)N[C@@H](Cc1c[nH]cn1)C(=O)N[C@@H](Cc1c[nH]c3ccccc13)C(=O)N2 [Chem. 62, c[c[Cys-Pro-His-D-Phe-His-Trp-Cys]- Ala-Lys-Lys-Lys-Trp]] (cyclo(AKKKWCPH[dF]HWC); disulfide 6-12) |  |  |  |

The remaining lines, values behind:

| Structure (SMILES) | EC50 (human MC1R; [3]) | EC50 (human MC4R [1]; [4]) | Ki (human MC4R [2]; [5]) | MC1R/MC4R cAMP EC50 ratio (human MC4R [1]) | EC50 (human MC1R) | EC50 (human MC4R [1]) | Ki (human MC4R [2]) |
| --- | --- | --- | --- | --- | --- | --- | --- |
| N=C(N)NCCC[C@@H]1NC(=O)[C@@H](Cc2ccccc2)NC(=O)[C@H](Cc2c[nH]cn2)NC(=O)[C@H]2CCCN2C(=O)[C@@H]2CSSC[C@H](NC(=O)[C@H](Cc3c[nH]c4ccccc34)NC1=O)C(=O)N1CCC[C@@H]1C(=O)N[C@@H](Cc1c[nH]cn1)C(=O)N[C@H](Cc1ccccc1)C(=O)N[C@@H](CCCNC(=N)N)C(=O)N[C@@H](Cc1c[nH]c3ccccc13)C(=O)N2 [Chem. 33, c[c[Cys-D-Pro-His-D-Phe-Arg-Trp- Cys]-D-Pro-His-D-Phe-Arg-Trp]] (cyclo(C[dP]H[dF]RWC[dP]H[dF]RW); disulfide 1-7) | > 1 nM | 19.8 nM | 27.8 nM |  |  |  |  |
| C[C@@H]1NC(=O)[C@@H]2CSSC[C@H](NC(=O)[C@H](Cc3c[nH]c4ccccc34)NC(=O)[C@H](CNC(=N)N)NC(=O)[C@@H](Cc3ccccc3)NC(=O)[C@H](Cc3c[nH]cn3)NC1=O)C(=O)N[C@@H](C)C(=O)N[C@@H](Cc1c[nH]cn1)C(=O)N[C@H](Cc1ccccc1)C(=O)N[C@@H](CNC(=N)N)C(=O)N[C@@H](Cc1c[nH]c3ccccc13)C(=O)N2 [Chem. 42, c[c[Cys-Ala-His-D-Phe-AGP-Trp- Cys]-Ala-His-D-Phe-AGP-Trp]] | > 100 nM | > 1000 nM | ≥ 10000 nM |  |  |  |  |
| C[C@@H]1NC(=O)[C@@H]2CSSC[C@H](NC(=O)[C@H](Cc3c[nH]c4ccccc34)NC(=O)[C@H](CCCNC(=N)N)NC(=O)[C@@H](Cc3ccccc3)NC(=O)[C@H](Cc3c[nH]cn3)NC1=O)C(=O)N[C@@H](C)C(=O)N[C@@H](CCC(=O)O)C(=O)N[C@@H](CCC(=O)O)C(=O)N[C@@H](CCC(=O)O)C(=O)N[C@@H](Cc1c[nH]c3ccccc13)C(=O)N2 [Chem. 44, c[c[Cys-Ala-His-D-Phe-Arg-Trp-Cys]- Ala-Glu-Glu-Glu-Trp]] (cyclo(AEEEWCAH[dF]RWC); disulfide 6-12) |  |  |  | 21 | 31.9 nM | 1.53 nM | 50.9 nM |
| C[C@@H]1NC(=O)[C@@H]2CSSC[C@H](NC(=O)[C@H](Cc3c[nH]c4ccccc34)NC(=O)[C@H](CCCNC(=N)N)NC(=O)[C@H](Cc3ccccc3)NC(=O)[C@H](Cc3c[nH]cn3)NC1=O)C(=O)N[C@@H](C)C(=O)N[C@@H](Cc1c[nH]cn1)C(=O)N[C@@H](Cc1ccccc1)C(=O)N[C@@H](CCCNC(=N)N)C(=O)N[C@@H](Cc1c[nH]c3ccccc13)C(=O)N2 [Chem. 56, c[c[Cys-Ala-His-Phe-Arg-Trp-Cys]- Ala-His-Phe-Arg-Trp]] |  |  |  | 80 | 35.3 nM | 0.44 nM | 1.82 nM |
| C[C@@H]1NC(=O)[C@@H]2CSSC[C@H](NC(=O)[C@H](Cc3c[nH]c4ccccc34)NC(=O)[C@H](CCCNC(=N)N)NC(=O)[C@@H](Cc3ccccc3)NC(=O)[C@H](Cc3c[nH]cn3)NC1=O)C(=O)N[C@@H](C)C(=O)N[C@@H](CCCCN)C(=O)N[C@@H](CCCCN)C(=O)N[C@@H](CCCCN)C(=O)N[C@@H](CCCNC(=N)N)C(=O)N2 [Chem. 59, c[c[Cys-Ala-His-D-Phe-Arg-Trp-Cys]- Ala-Lys-Lys-Lys-Arg]] (cyclo(AH[dF]RWCAKKKRC); disulfide 6-12) | 0.16 nM | 0.004 nM | 0.01 nM | 40 |  |  |  |
| C[C@@H]1NC(=O)[C@@H]2CSSC[C@H](NC(=O)[C@H](Cc3c[nH]c4ccccc34)NC(=O)[C@H](CCCCN)NC(=O)[C@H](CCCCN)NC(=O)[C@H](CCCCN)NC1=O)C(=O)NC(C)(C)C(=O)N[C@@H](Cc1c[nH]cn1)C(=O)N[C@H](Cc1ccccc1)C(=O)N[C@@H](Cc1c[nH]cn1)C(=O)N[C@@H](Cc1c[nH]c3ccccc13)C(=O)N2 [Chem. 61, c[c[Cys-Aib-His-D-Phe-His-Trp-Cys]- Ala-Lys-Lys-Lys-Trp]] (cyclo(AKKKWC[Aib]H[dF]HWC); disulfide 6-12) | > 1 nM | 0.31 nM | 0.22 nM | >3 |  |  |  |
| C[C@@H]1NC(=O)[C@@H]2CSSC[C@H](NC(=O)[C@H](Cc3ccc(Cl)c(Cl)c3)NC(=O)[C@H](CCCNC(=N)N)NC(=O)[C@@H](Cc3ccccc3)NC(=O)[C@H](Cc3c[nH]cn3)NC1=O)C(=O)N[C@@H](C)C(=O)N[C@@H](CCCCN)C(=O)N[C@@H](CCCCN)C(=O)N[C@@H](CCCCN)C(=O)N[C@@H](Cc1c[nH]c3ccccc13)C(=O)N2 [Chem. 66, c[c[Cys-Ala-His-D-Phe-Arg-3,4-DiCl- Phe-Cys]-Ala-Lys-Lys-Lys-Trp]] (cyclo(AH[dF]R[Phe(3,4-Cl2)]CAKKKWC); disulfide 6-12) | 0.22 nM | 0.01 nM | 0.03 nM | 22 |  |  |  |
| C[C@@H]1NC(=O)[C@@H]2CSSC[C@H](NC(=O)[C@H](Cc3c[nH]c4ccccc34)NC(=O)[C@H](CCCCN)NC(=O)[C@H](CCCCN)NC(=O)[C@H](CCCCN)NC1=O)C(=O)N(C)CC(=O)N[C@@H](Cc1c[nH]cn1)C(=O)N[C@H](Cc1ccccc1)C(=O)N[C@@H](Cc1c[nH]cn1)C(=O)N[C@@H](Cc1c[nH]c3ccccc13)C(=O)N2 [Chem. 73, c[c[Cys-Sar-His-D-Phe-His-Trp-Cys]- Ala-Lys-Lys-Lys-Trp]] (cyclo(AKKKWC[Sar]H[dF]HWC); disulfide 6-12) | > 50 nM |  | 0.3 nM | >40 |  |  |  |
